# US20170280720A1, “ARGININE […] INHIBITORS AND USES THEREOF” (EPIZYME, INC., priority 2014, published 2017)
# How the values were obtained:
# [1] = molecular target: T1, human PRMT1 (Homo sapiens, UniProt Q99873); test: PRMT1 biochemical assay (3H-SAM Flashplate, peptide substrate); conditions: read-out: PRMT1_ IC50
# T1 construct: GST-tagged PRMT1; made in house; host or cells: High Five insect cells (baculovirus, pFastBacI)
# Text: S-adenosylmethionine (SAM), S-adenosylhomocysteine (SAH), bicine, Tween20, dimethylsulfoxide (DMSO), bovine skin gelatin (BSG), and Tris(2-carboxyethyl)phosphine hydrochloride solution (TCEP) were purchased from Sigma-Aldrich at the highest level of purity possible. ^3H-SAM was purchase from American Radiolabeled Chemicals with a specific activity of 80 Ci/mmol. 384-well streptavidin Flashplates were purchased from PerkinElmer.
# Peptide representative of human histone H4 residues 36-50 was synthesized with an N-terminal linker-affinity tag motif and a C-terminal amide cap by 21st Century Biochemicals. The peptide was purified by high-performance liquid chromatography (HPLC) to greater than 95% purity and confirmed by liquid chromatography mass spectrometry (LC-MS). The sequence was Biot-Ahx-[…]-amide (SEQ ID NO.: 1).
# Full-length human PRMT1 isoform 1 (NM_001536.5) transcript clone was amplified from an HEK 293 cDNA library, incorporating flanking 5′ sequence encoding a FLAG tag ([…]) (SEQ ID NO.: 2) fused directly to Met 1 of PRMT1. The amplified gene was subcloned into pFastBacI (Life Technologies) modified to encode an N-terminal GST tag and a TEV cleavage sequence ([…] […] […] […] QGGNS)(SEQ ID NO.: 3) fused to Asp of the Flag tag of PRMT1.
# Recombinant baculovirus were generated according to Bac-to-Bac kit instructions (Life Technologies). Protein over-expression was accomplished by infecting exponentially growing High Five insect cell culture at 1.5×10^6 cell/ml with 1:100 ratio of virus. Infections were carried out at 27° C. for 48 hours, harvested by centrifugation, and stored at −80° C. for purification.
# GST-tagged PRMT1 was eluted with 50 mM Tris, 2 mM glutathione, pH 7.8, dialysed in buffer A and concentrated to 1 mg/mL. The purity of recovered protein was 73%. Reference: Wasilko, D. J. and S. E. Lee: “TIPS: titerless infected-cells preservation and scale-up” Bioprocess J., 5 (2006), pp. 29-32.
# General Procedure for PRMT1 Enzyme Assays on Peptide Substrates.
# The assays were all performed in a buffer consisting of 20 mM Bicine (pH=7.6), 1 mM TCEP, 0.005% BSG, and 0.002% Tween 20, prepared on the day of use. Compounds in 100% DMSO (1 ul) were spotted into a polypropylene 384-well V-bottom plates (Greiner) using a Platemate Plus outfitted with a 384-channel head (Thermo Scientific). DMSO (1 ul) was added to Columns 11, 12, 23, 24, rows A-H for the maximum signal control and 1 ul of SAH, a known product and inhibitor of PRMT1, was added to columns 11, 12, 23, 24, rows I-P for the minimum signal control. A cocktail (40 ul) containing the PRMT1 enzyme was added by Multidrop Combi (Thermo-Fisher). The compounds were allowed to incubate with PRMT1 for 30 min at room temperature, then a cocktail (10 ul) containing SAM and peptide was added to initiate the reaction (final volume=51 ul). The final concentrations of the components were as follows: PRMT1 was 0.5 nM, ^3H-SAM was 200 nM, non-radiolabeled SAM was 1.5 uM, peptide was 20 nM, SAH in the minimum signal control wells was 1 mM, and the DMSO concentration was 2%. The assays were stopped by the addition of non-radiolabeled SAM (10 ul) to a final concentration of 300 uM, which dilutes the ^3H-SAM to a level where its incorporation into the peptide substrate is no longer detectable. 50 ul of the reaction in the 384-well polypropylene plate was then transferred to a 384-well Flashplate and the biotinylated peptides were allowed to bind to the streptavidin surface for at least 1 hour before being washed once with 0.1% Tween20 in a Biotek ELx405 plate washer. The plates were then read in a PerkinElmer TopCount plate reader to measure the quantity of ^3H-labeled peptide bound to the Flashplate surface, measured as disintegrations per minute (dpm) or alternatively, referred to as counts per minute (cpm).
# Where dpm=disintegrations per minute, cmpd=signal in assay well, and min and max are the respective minimum and maximum signal controls. […]
# [2] = molecular target: PRMT5 (Homo sapiens, UniProt O14744); test: PRMT5 IC50 (Table 2; no method described); format: biochemical; conditions: read-out: PRMT5_ IC50
# PRMT5, sequence (O14744 whole entry, species assumed): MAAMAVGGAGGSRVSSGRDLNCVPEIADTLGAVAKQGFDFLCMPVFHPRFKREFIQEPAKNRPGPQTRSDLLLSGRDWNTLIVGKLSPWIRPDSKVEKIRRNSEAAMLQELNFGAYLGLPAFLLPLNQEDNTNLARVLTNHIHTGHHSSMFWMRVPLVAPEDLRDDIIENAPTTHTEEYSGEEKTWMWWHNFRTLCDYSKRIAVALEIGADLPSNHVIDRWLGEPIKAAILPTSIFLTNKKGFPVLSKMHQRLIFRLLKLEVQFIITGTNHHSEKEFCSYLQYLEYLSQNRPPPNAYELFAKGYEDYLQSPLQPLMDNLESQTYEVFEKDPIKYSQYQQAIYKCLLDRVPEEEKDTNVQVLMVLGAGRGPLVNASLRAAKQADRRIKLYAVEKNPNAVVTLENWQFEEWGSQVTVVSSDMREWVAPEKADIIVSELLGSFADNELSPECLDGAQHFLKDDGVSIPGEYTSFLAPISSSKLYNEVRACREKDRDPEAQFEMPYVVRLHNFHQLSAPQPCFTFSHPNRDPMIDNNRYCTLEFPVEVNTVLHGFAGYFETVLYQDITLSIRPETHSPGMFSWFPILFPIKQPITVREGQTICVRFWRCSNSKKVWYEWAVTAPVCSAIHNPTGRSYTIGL
# PRMT5, sequence (Q9BQA1 whole entry partner, species assumed): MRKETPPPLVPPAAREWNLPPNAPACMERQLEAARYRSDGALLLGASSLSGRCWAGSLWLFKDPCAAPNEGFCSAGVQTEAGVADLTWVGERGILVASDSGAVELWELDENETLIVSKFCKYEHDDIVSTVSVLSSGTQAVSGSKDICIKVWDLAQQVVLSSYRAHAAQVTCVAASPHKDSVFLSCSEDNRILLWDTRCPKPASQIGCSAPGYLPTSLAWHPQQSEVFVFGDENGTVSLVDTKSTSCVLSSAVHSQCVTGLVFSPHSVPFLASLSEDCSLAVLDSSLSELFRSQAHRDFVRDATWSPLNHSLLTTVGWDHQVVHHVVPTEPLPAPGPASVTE
# [3] = tested on: asymmetric di-methyl PABP1 in RKO cells; test: In Cell Western (ICW) for asymmetric di-methyl PABP1 and DNA content in RKO cells; format: cell-based; conditions: Homo sapiens, RKO, In Cell Western
# Outline: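 RKO cells treated with compound for 48 h at 37 °C, then fixed, methanol-permeabilized and stained for asymmetric di-methyl PABP1 (800 nm) with DRAQ5 DNA stain (700 nm). Signal ratio normalized to DMSO and 20 μM reference-compound controls. IC50 from nine 3-fold dilutions in triplicate.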
# [4] = molecular target: T2, Human CARM1 (PRMT4) (Homo sapiens, UniProt Q86X55); test: CARM1 biochemical assay (3H-SAM Flashplate, peptide substrate); conditions: read-out: CARM1_ IC50
# T2 construct: Flag-CARM1-His; made in house; host or cells: HEK 293F cells (BacMam baculovirus, pFastBacMam)
# T2 sequence (Q86X55 2-585 isoform Q86X55-1): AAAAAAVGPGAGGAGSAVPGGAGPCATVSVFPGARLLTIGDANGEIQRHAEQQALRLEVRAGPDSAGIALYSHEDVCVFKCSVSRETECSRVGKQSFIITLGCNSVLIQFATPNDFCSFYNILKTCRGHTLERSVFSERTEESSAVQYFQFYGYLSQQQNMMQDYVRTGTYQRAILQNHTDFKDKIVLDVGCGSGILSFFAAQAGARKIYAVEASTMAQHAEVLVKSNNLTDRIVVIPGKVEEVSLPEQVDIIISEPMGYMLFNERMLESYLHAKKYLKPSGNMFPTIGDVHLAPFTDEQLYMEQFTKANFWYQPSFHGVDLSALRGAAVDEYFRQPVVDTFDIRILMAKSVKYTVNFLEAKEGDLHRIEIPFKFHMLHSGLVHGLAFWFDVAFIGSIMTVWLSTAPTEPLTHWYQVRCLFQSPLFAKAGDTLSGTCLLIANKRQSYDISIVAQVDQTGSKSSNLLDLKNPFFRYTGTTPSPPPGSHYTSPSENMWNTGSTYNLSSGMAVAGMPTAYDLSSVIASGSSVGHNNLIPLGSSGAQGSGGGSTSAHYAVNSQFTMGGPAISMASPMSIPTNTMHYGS
# Outline: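 FLAG/His-tagged human CARM1 (isoform 1, Δ539-561, baculovirus-expressed), 0.25 nM, preincubated 30 min at room temperature with compound (2% DMSO) in 20 mM Bicine pH 7.6, then reacted with 30 nM 3H-SAM and 250 nM biotinylated H3 16-30 peptide (R26 monomethyl). Stopped with 300 uM cold SAM; labelled peptide captured on streptavidin Flashplate; % inhibition versus DMSO and 1 mM SAH controls fitted to a 4- or 3-parameter curve.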
# T1 sequence (Q99873 with tags, fused parts or gaps): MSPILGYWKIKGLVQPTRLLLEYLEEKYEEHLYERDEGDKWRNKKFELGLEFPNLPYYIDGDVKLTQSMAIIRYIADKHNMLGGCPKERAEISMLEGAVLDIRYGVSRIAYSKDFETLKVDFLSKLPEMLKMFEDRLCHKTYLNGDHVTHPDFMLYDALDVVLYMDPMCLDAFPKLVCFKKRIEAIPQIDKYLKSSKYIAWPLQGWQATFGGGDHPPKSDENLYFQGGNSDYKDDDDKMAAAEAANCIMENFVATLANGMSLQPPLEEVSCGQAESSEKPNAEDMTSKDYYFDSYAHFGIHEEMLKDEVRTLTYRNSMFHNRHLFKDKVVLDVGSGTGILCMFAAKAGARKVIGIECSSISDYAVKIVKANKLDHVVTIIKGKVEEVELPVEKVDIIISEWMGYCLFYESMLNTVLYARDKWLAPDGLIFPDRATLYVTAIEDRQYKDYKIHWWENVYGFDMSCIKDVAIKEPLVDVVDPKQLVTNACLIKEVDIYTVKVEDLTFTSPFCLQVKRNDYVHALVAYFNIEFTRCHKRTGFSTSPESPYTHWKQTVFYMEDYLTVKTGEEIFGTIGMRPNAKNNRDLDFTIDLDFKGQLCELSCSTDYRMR
SMILES,IC50 [1] [nM],IC50 [2] [nM],IC50 [3] [nM],IC50 [4] [nM]
COc1ccc(-n2cnc3ccc(-c4ccc(CNCCN)cc4)cc32)cc1 [Compound 89],414,417,,
CNCCN(C)Cc1cccc(-c2cc(C(=O)N(C)Cc3ccccc3F)c3cnn(C(C)C)c3n2)c1 [Compound 304],,670,,239
Cc1cc(C)c(CNC(=O)c2ccnc(-c3cccc(CN(C)CCN)c3)c2)c(=O)[nH]1 [Compound 376],202,24400,,
CC(C)n1ncc2c(C(=O)N(C)Cc3ccccc3F)cc(-c3cccc(CN(C)CCN)c3)nc21 [Compound 250],,816,,58.3
NCCNCc1ccc(-c2ccc3[nH]c(=O)n(-c4ccccc4)c3c2)cc1 [Compound 91],431,502,,
CNCCNCc1ccc(-c2cncc(C(=O)NCc3c(C)cc(C)[nH]c3=O)c2)cc1 [Compound 377],204,36500,,
CC(C)n1ncc2c(C(=O)N(C)Cc3ccc(F)cc3)cc(-c3cccc(CN(C)CCN)c3)nc21 [Compound 240],,7420,,49.7
CC(C)n1ncc2c(C(=O)N(C)Cc3cccc(Cl)c3)cc(-c3cccc(CN(C)CCN)c3)nc21 [Compound 266],,1790,,74.9
CNCCN(C)Cc1cccc(-c2cc(C(=O)N[C@@H](C)c3ccccc3)c3cnn(Cc4ccccc4F)c3n2)c1 [Compound 283],,29200,,131
CC(C)n1ncc2c(C(=O)N3CCc4ccccc4C3)cc(-c3cccc(CNCCN)c3)nc21 [Compound 269],,13100,,79.9
NCCNCc1ccc(-c2ccc3cnn(CC4CCNCC4)c3c2)cc1 [Compound 348],,435,,10000
CNCCN(C)Cc1cccc(-c2cc(C(=O)N[C@@H](C)c3ccccc3)c3cnn(-c4ccccn4)c3n2)c1 [Compound 303],,13300,,235

# The next compounds have a lower IC50 [2] than those just listed; values first:
IC50 [1] [nM],IC50 [2] [nM],IC50 [3] [nM],IC50 [4] [nM],SMILES
604,366,,,NCCNCc1ccc(-c2ccc3ncn(-c4ccccc4)c3c2)cc1 [Compound 113]
1690,316,,,Cc1cc2cc(-c3ccc(CNCCN)cc3)cnc2[nH]1 [Compound 152]
317,258,,,NCCNCc1ccc(-c2ccc3nc(-c4ccc5cccnc5c4)[nH]c3c2)cc1 [Compound 77]
4530,250,,,Cn1cnc2ccc(-c3ccc(CNCCN)cc3)cc21 [Compound 165]
1530,238,,,N#Cc1ccc(-n2cnc3ccc(-c4ccc(CNCCN)cc4)cc32)cc1 [Compound 149]
,235,,51.9,CC(C)n1ncc2c(C(=O)N(C)Cc3ccccc3Cl)cc(-c3cccc(CN(C)CCN)c3)nc21 [Compound 242]
1330,173,,,NCCNCc1ccc(-c2ccc3ncn(C4CCCC4)c3c2)cc1 [Compound 146]
,170,,1270,NCCNCc1ccc(-c2ccc3cnn(Cc4cccc(C(=O)N5CCCCC5)c4)c3c2)cc1 [Compound 326]
,135,,5680,COc1ccc(Cn2ncc3ccc(-c4ccc(CNCCN)cc4)cc32)cc1 [Compound 339]
1330,129,,,CN(C)C(=O)c1ccc(Cn2cnc3ccc(-c4ccc(CNCCN)cc4)cc32)cc1 [Compound 147]
1090,128,12500,,Cc1[nH]c2ncc(-c3ccc(CNCCN)cc3)cc2c1C [Compound 140]
430,125,,,COc1cccc(Cn2cnc3ccc(-c4ccc(CNCCN)cc4)cc32)c1 [Compound 90]
,116,,10000,CN(C(=O)c1cccc(Cn2cnc3ccc(-c4ccc(CNCCN)cc4)cc32)c1)C1CCCC1 [Compound 346]
,114,,9390,COCCNC(=O)c1cccc(Cn2cnc3ccc(-c4ccc(CNCCN)cc4)cc32)c1 [Compound 345]
802,74.5,,,Cc1cccc(Cn2cnc3ccc(-c4ccc(CNCCN)cc4)cc32)c1 [Compound 127]
,67.6,,8960,N#Cc1ccc(Cn2cnc3ccc(-c4ccc(CNCCN)cc4)cc32)cc1 [Compound 344]
